Patent US20230131966A1, “FUNGICIDAL AMIDES” (FMC Corporation, priority 2020, published 2023)

Assays:
Type in all cases: in vivo
[1] = test system: Phakopsora pachyrhizi; assay: Test A: Asian soybean rust control on soybean seedlings; conditions: soybean seedlings, 100 = 100% disease control, 0 = no control
[2] = test system: Puccinia recondita f. sp. tritici; assay: Test B: wheat leaf rust control on wheat seedlings; conditions: wheat seedlings, 100 = 100% disease control, 0 = no control
[3] = test system: Zymoseptoria tritici; assay: Test C: wheat leaf blotch control on wheat seedlings; conditions: wheat seedlings, 100 = 100% disease control, 0 = no control
[4] = test system: Plasmopara viticola; assay: Test D: grape downy mildew control on grape seedlings; conditions: 100 = 100% disease control, 0 = no control
[5] = test system: Botrytis cinerea; assay: Test E: tomato Botrytis control on tomato seedlings; conditions: 100 = 100% disease control, 0 = no control
[6] = test system: Phytophthora infestans; assay: whole plant or invertebrate; conditions: tomato seedlings, 100 = 100% disease control, 0 = no control
[7] = test system: Erysiphe graminis f. sp. tritici; assay: Test G: wheat powdery mildew control on wheat seedlings; conditions: 100 = 100% disease control, 0 = no control

Compound	Test A disease control rating ([1]; 250 ppm) [%]	Test B disease control rating ([2]; 250 ppm) [%]	Test C disease control rating ([3]; 250 ppm) [%]	Test D disease control rating ([4]; 250 ppm) [%]	Test E disease control rating ([5]; 250 ppm) [%]	Test F disease control rating ([6]; 250 ppm) [%]	Test G disease control rating ([7]; 250 ppm) [%]	Test A disease control rating ([1]; 50 ppm) [%]	Test B disease control rating ([2]; 50 ppm) [%]	Test C disease control rating ([3]; 50 ppm) [%]	Test D disease control rating ([4]; 50 ppm) [%]	Test E disease control rating ([5]; 50 ppm) [%]	Test F disease control rating ([6]; 50 ppm) [%]	Test G disease control rating ([7]; 50 ppm) [%]
COc1ccnc(C(=O)NC(C)C(=O)OC(C)c2cccc(-n3ccc(C(F)(F)F)n3)c2)c1O (mixture of isomers) [Compound 28]	99	74	90	40	0	0	0							
COc1ccnc(C(=O)NC(C)C(=O)OC(C)c2ccc(C#N)cc2)c1OC(C)=O (mixture of isomers) [Compound 33]	13	0	87	66	0	0	0							
COc1ccnc(C(=O)NC(C)C(=O)OC(C)c2ccc(C#N)cc2)c1O (mixture of isomers) [Compound 34]	0	0	13	58	0	0	0							
COc1ccnc(C(=O)NC(C)C(=O)OC(C)c2ccc(C(F)(F)F)cc2)c1OC(C)=O (mixture of isomers) [Compound 35]	100	100	80	68	0	0	0							
COc1ccnc(C(=O)NC(C)C(=O)OC(C)c2ccc(C(F)(F)F)cc2)c1O (mixture of isomers) [Compound 36]	100	99	81	72	0	0	0							
COc1ccnc(C(=O)NC(C)C(=O)OC(C)C23CC4CC(CC(C4)C2)C3)c1OC(C)=O (mixture of isomers) [Compound 43]	100	100	90	71	0	0	0							
CCOC(=O)c1cnn(-c2ccc(C(C)OC(=O)C(C)NC(=O)c3nccc(OC)c3OC(C)=O)cc2)c1 (mixture of isomers) [Compound 47]	99	68	51	20	0	0	0							
CCOC(=O)c1ccn(-c2ccc(C(C)OC(=O)C(C)NC(=O)c3nccc(OC)c3OC(C)=O)cc2)n1 (mixture of isomers) [Compound 48]	55	55	8	4	0	0	0							
CCOC(=O)c1ccn(-c2ccc(C(C)OC(=O)C(C)NC(=O)c3nccc(OC)c3O)cc2)n1 (mixture of isomers) [Compound 49]	97	41	0	17	0	0	0							
COc1ccnc(C(=O)NC(C)C(=O)OC(C)c2ccc(OC3CCCCC3)cc2)c1O (mixture of isomers) [Compound 53]	56	55	22	22	0	0	0							
COc1ccnc(C(=O)NC(C)C(=O)OC(C)c2ccccc2Oc2ccc(F)cc2)c1OC(C)=O (mixture of isomers) [Compound 61]	0	55	0	15	0	0	0							
COc1ccnc(C(=O)NC(C)C(=O)OC(C(C)C)C2CCCCC2)c1O (mixture of isomers) [Compound 63]	100	99	79	81	16	0	0							
COc1ccnc(C(=O)NC(C)C(=O)OC(C)c2ccc(C3CCCC3)cc2)c1OC(C)=O (mixture of isomers) [Compound 64]								100	99	13	86	0	0	0
COc1ccnc(C(=O)NC(C)C(=O)OC(C)c2ccc(Br)s2)c1OC(C)=O (mixture of isomers) [Compound 67]	13	55	36	53	0	0	0							
CCCCCCc1ccc(C(C)OC(=O)C(C)NC(=O)c2nccc(OC)c2O)cc1 (mixture of isomers) [Compound 68]	100	95	97	46	0	40	0							
COc1ccnc(C(=O)NC(C)C(=O)OC(C)c2ccc(C#C[Si](C)(C)C)cc2)c1O (mixture of isomers) [Compound 69]	100	100	94	50	0	9	0							
COc1ccnc(C(=O)NC(C(=O)OC(C)c2ccc(C3CCCCC3)cc2)C(C)C)c1O (mixture of isomers) [Compound 70]	100	100	97	63	0	24	13							
CCC(OC(=O)C(C)NC(=O)c1nccc(OC)c1O)c1ccc(C2CCCCC2)cc1 (mixture of isomers) [Compound 72]	100	92	27	62	0	0	35							
COc1ccnc(C(=O)NC(C)C(=O)OC(C)c2ccc3ccccc3c2)c1OC(C)=O (mixture of isomers) [Compound 75]	100	100	100	61	0	0	0							
C#Cc1ccc(C(C)OC(=O)C(C)NC(=O)c2nccc(OC)c2O)cc1 (mixture of isomers) [Compound 78]	100	100	82	85	0	0	0							
COc1ccnc(C(=O)NC(C)C(=O)OC(C)c2ccc(C#C[Si](C)(C)C)cc2)c1OC(C)=O (mixture of isomers) [Compound 80]	100	100	98	28	0	0	0							
COc1ccnc(C(=O)NC(C)C(=O)OC(C)c2ccc(F)cc2Oc2ccccc2)c1O (mixture of isomers) [Compound 81]	93	68	78	53	0	0	0							
COc1ccnc(C(=O)NC(C)C(=O)OC(C)c2ccc(F)cc2Oc2ccc(F)cc2)c1O (mixture of isomers) [Compound 82]	95	55	79	82	0	0	0							
